Experimental data from patent US11890287B2, “Therapeutic compounds and compositions for treating social disorders and substance use disorders” (Kinoxis Therapeutics Pty Ltd, priority 2015, dated 2024).

Columns and labels:
rat hypothalamic neurons = experiment: Signalling in rat hypothalamic neurons; format: cell-based
HEK-293 cells = experiment: Cell viability (Cell Titer Blue); format: cell-based; details: 48 hours; for Viability: mean ± SD
Procedure: (§1) No apparent cytotoxicity of SOC-1 has been seen in vitro or toxicity in vivo. In a test, SH-SY5Y neuroblastoma cells and HEK-293 cells (4×10^4 cells per well) were exposed to OT or SOC-1 (0.01-10 μM) for 48 hours, with daily media changes. Viability of cells was assessed after a 4 hour exposure to Cell Titer Blue (Promega).

[1] = system: SH-SY5Y neuroblastoma cells; experiment: Cell viability (Cell Titer Blue); format: cell-based; details: 48 hours; for Viability: mean ± SD
Procedure: as §1

male Sprague Dawley rats = experiment: Methamphetamine-primed reinstatement; format: in vivo, rat
Sprague Dawley rats = experiment: Acute toxicity, single intravenous bolus dose 1-30 mg/kg, one week dose range finding study; format: in vivo; details: for Hunched posture or gait- mild (incidence) / Number of abnormalities detected: (incidence) / Palpebral closure- mild/moderate (incidence) / Piloerection- mild (incidence) / Reduced activity- mild (incidence): n 3
Procedure: The acute toxicity of the SOC-1 test item was assessed in Sprague Dawley rats following intravenous administration of a single bolus dose. A total of four groups of n=3 adult female rats were treated with 1, 3, 10 and 30 mg/kg doses of SOC-1. The rats were then observed for 7 days prior to termination on Study Day 8 without necropsy.
The design of this acute single dose toxicity study in rats was adapted from OECD Guideline for Testing of Chemicals No. 420 Acute Oral Toxicity—Fixed Dose Procedure’ 2001 (2) and the test facility Standard Operating Procedure SP_T002 ‘Dose Range Finding Study in Rodents’. The study procedures were conducted as outlined below and according to related test facility Standard Operating Procedures.
Briefly, on completion of the acclimation period the study was commenced with administration of the treatment on Study Day 1. […] Body weights were also collected daily. On Study Day 8 the surviving animals were culled without necropsy.
The test item treatments were administered as a bolus intravenous injection in a dose volume of 2 mL/kg on Study Day 1 with restraint on conscious animals (with the exception of Group 4 where the treatment was administered in a dose volume of 6 mL/kg on lightly anaesthetised animals following the administration of isofluorane anaesthetic).
Morbidity and mortality observations were recorded daily during the acclimation period and on Day 8, and twice daily from Day 1 through Day 7.
Clinical observations were conducted at least once during the acclimation period. Clinical observations were conducted at least once daily from Day 1 up to and including the day prior to termination. On the day of treatment the animals were monitored continuously for the first 30 min post-treatment with formal observations made at 30 minutes, 1 hour and 4 hours post-treatment.
The clinical observations included examination of animals for changes in skin and fur, eyes and mucous membranes, respiratory and circulatory function, gait and posture, behaviour, tremors or convulsions and any other abnormal findings.
The clinical observations also included daily examination of the tail for any injection site reaction (for example, erythema or oedema).
Body weight was recorded once during the acclimation period and daily from the time of treatment on Day 1 to Day 8. The mean body weight values for study days 1-8 are shown as group mean±standard deviation (SD) in FIG. 14.

5-HT6 = target: T1, 5-HT6 (Homo sapiens, UniProt P50406); experiment: PDSP orthosteric binding screen
T1 construct: Psychoactive Drug Screening Program (PDSP)
T1 sequence (P50406 whole entry, species assumed): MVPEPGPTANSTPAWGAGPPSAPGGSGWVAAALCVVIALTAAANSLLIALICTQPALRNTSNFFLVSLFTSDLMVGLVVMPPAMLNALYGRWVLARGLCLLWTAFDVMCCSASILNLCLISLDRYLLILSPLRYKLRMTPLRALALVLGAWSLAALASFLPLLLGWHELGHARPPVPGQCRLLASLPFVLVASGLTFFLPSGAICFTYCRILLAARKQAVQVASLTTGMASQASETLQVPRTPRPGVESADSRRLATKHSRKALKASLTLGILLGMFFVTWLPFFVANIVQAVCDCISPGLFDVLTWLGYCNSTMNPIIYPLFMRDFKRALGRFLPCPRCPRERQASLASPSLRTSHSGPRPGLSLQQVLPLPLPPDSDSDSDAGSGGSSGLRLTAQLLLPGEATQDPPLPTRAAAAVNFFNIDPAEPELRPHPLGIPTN
Source text: (§2) Comprehensive screening of affinity for the orthosteric binding sites for numerous receptors from the Psychoactive Drug Screening Program (PDSP) have failed as yet to identify a target, despite the powerful OT-like behavioural effects of the compound evident in vivo and the clear activation of brain OT systems evident from our Fos data.

Alpha1B = target: T2, Alpha1B (Homo sapiens, UniProt P35368); experiment: PDSP orthosteric binding screen
T2 construct: Psychoactive Drug Screening Program (PDSP)
T2 sequence (P35368 whole entry): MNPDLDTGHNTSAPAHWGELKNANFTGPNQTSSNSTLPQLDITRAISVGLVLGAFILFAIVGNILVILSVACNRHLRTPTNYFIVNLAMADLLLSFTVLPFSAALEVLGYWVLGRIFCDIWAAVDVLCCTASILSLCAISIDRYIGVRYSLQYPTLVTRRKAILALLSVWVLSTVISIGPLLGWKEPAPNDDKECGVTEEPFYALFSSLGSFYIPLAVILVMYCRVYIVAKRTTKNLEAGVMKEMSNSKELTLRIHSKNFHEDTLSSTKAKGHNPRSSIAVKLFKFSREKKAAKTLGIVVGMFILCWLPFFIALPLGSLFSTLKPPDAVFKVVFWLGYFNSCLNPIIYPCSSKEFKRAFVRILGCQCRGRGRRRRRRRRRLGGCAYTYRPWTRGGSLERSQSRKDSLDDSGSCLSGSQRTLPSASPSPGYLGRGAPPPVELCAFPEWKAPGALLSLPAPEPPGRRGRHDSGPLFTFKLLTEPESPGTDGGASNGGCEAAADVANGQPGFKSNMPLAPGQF
Source text: as §2

Alpha1D = target: T3, Alpha1D (Homo sapiens, UniProt P25100); experiment: PDSP orthosteric binding screen
T3 construct: Psychoactive Drug Screening Program (PDSP)
T3 sequence (P25100 whole entry): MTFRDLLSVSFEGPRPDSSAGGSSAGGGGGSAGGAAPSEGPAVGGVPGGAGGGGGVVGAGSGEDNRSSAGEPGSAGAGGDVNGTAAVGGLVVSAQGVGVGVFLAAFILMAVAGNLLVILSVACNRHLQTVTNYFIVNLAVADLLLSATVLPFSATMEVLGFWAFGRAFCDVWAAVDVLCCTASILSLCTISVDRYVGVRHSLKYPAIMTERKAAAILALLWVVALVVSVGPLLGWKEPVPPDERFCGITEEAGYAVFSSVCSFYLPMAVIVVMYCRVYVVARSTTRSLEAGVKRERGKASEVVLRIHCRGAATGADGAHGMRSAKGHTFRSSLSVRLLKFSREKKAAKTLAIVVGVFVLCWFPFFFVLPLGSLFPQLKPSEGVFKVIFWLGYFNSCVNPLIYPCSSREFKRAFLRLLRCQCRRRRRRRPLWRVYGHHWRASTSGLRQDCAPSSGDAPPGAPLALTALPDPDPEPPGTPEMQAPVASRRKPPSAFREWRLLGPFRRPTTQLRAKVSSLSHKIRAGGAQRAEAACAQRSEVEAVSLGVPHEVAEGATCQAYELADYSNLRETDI
Source text: as §2

D4 = target: T4, D4 (Homo sapiens, UniProt P21917); experiment: PDSP orthosteric binding screen
T4 construct: Psychoactive Drug Screening Program (PDSP)
T4 sequence (P21917 whole entry): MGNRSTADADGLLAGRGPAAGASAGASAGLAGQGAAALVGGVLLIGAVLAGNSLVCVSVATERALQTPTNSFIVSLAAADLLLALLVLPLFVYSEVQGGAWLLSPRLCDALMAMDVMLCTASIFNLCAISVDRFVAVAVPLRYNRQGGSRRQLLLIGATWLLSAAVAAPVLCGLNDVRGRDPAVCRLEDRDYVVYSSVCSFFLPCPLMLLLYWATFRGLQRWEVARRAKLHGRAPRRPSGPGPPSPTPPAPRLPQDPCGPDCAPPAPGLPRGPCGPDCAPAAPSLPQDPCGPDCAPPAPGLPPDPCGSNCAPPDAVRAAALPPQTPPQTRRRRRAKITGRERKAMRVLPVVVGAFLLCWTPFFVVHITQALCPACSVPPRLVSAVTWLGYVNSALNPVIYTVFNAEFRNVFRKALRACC
Source text: as §2

M1 = target: T5, M1 (Homo sapiens, UniProt P11229); experiment: PDSP orthosteric binding screen
T5 construct: Psychoactive Drug Screening Program (PDSP)
T5 sequence (P11229 whole entry): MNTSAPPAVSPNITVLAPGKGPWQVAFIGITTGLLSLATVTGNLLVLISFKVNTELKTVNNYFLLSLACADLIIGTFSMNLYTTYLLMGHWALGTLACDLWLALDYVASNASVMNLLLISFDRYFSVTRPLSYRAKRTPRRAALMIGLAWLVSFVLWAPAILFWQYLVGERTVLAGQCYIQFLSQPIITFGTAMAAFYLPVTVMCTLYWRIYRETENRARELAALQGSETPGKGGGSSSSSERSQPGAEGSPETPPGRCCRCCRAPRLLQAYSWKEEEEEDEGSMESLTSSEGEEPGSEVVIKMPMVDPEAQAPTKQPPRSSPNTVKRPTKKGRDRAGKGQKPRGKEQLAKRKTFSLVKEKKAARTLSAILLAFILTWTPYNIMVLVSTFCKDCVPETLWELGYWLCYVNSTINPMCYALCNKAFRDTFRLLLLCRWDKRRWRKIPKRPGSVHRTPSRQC
Source text: as §2

M5 = target: T6, M5 (Homo sapiens, UniProt P08912); experiment: PDSP orthosteric binding screen
T6 construct: Psychoactive Drug Screening Program (PDSP)
T6 sequence (P08912 whole entry): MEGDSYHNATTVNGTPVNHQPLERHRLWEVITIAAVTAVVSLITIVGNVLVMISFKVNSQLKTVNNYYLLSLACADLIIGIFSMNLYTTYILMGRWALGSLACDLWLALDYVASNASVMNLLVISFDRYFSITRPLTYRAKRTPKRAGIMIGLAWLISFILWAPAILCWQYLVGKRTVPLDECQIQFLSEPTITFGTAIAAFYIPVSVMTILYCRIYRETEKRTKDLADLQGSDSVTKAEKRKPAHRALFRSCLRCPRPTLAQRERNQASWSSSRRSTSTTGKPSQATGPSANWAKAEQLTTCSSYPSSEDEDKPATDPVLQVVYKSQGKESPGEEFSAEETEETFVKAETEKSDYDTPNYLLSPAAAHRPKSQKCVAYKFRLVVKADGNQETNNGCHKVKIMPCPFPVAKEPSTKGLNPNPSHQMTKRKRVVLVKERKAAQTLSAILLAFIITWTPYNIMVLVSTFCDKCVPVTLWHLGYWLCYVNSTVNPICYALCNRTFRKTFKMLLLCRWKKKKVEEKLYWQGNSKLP
Source text: as §2

PBR = target: T7, PBR (Rattus norvegicus, UniProt P16257); experiment: PDSP orthosteric binding screen
T7 construct: Psychoactive Drug Screening Program (PDSP)
Source text: as §2

Cl.Cn1ncc2c1Nc1ccccc1NC2 [SOC-1]
Ca^2+ levels (rat hypothalamic neurons): did not reliably alter Ca^2+ levels | IP1 levels (rat hypothalamic neurons): did not alter IP1 levels | basal cAMP (rat hypothalamic neurons): able to decrease basal cAMP | forskolin-stimulated cAMP (rat hypothalamic neurons): did not reliably decrease forskolin-stimulated cAMP | Viability (HEK-293 cells; 0.01 μM): 102.6 ± 2.1 percentage of vehicle viability | Viability (HEK-293 cells; 0.1 μM): 102.1 ± 3.2 percentage of vehicle viability | Viability (HEK-293 cells; 1 μM): 102.5 ± 3.6 percentage of vehicle viability | Viability (HEK-293 cells; 10 μM): 103.2 ± 1.2 percentage of vehicle viability | differences in viability (HEK-293 cells; 0.01-10 μM): No significant differences in viability | Viability ([1]; 0.01 μM): 98.9 ± 2.7 percentage of vehicle viability | Viability ([1]; 0.1 μM): 99.1 ± 2.9 percentage of vehicle viability | Viability ([1]; 1 μM): 97.7 ± 1.6 percentage of vehicle viability | Viability ([1]; 10 μM): 97.0 ± 2.5 percentage of vehicle viability | differences in viability ([1]; 0.01-10 μM): No significant differences in viability | lever-pressing activity, SOC-1 on its own (SOC-1+vehicle) (male Sprague Dawley rats; 10 mg/kg, vs extinction day prior, p=0.147): did not significantly alter lever-pressing activity | locomotor activity across reinstatement sessions (male Sprague Dawley rats; 2.5 (p=0.006), 5 and 10 mg/kg (p<0.005) prior to methamphetamine prime): significantly lower | active lever pressing produced by a methamphetamine prime (male Sprague Dawley rats; 2.5, 5 and 10 mg/kg IP, each p<0.005 vs vehicle): significantly reduced active lever pressing | locomotor activity, sole administration of SOC-1 (male Sprague Dawley rats; vs previous extinction session, p=0.472): did not significantly change locomotor activity | Hunched posture or gait- mild (incidence) (Sprague Dawley rats; 1 mg/kg IV): 0 | Number of abnormalities detected: (incidence) (Sprague Dawley rats; 1 mg/kg IV): 3 | Palpebral closure- mild/moderate (incidence) (Sprague Dawley rats; 1 mg/kg IV): 0 | Piloerection- mild (incidence) (Sprague Dawley rats; 1 mg/kg IV): 0 | Reduced activity- mild (incidence) (Sprague Dawley rats; 1 mg/kg IV): 0 | Hunched posture or gait- mild (incidence) (Sprague Dawley rats; 3 mg/kg IV): 0 | Number of abnormalities detected: (incidence) (Sprague Dawley rats; 3 mg/kg IV): 3 | Palpebral closure- mild/moderate (incidence) (Sprague Dawley rats; 3 mg/kg IV): 0 | Piloerection- mild (incidence) (Sprague Dawley rats; 3 mg/kg IV): 0 | Reduced activity- mild (incidence) (Sprague Dawley rats; 3 mg/kg IV): 0 | reaction at the time of dose administration (Sprague Dawley rats; 10 mg/kg IV in 0.9% saline): exaggerated flinch reaction and vocalisation | Hunched posture or gait- mild (incidence) (Sprague Dawley rats; 10 mg/kg IV): 3 | Number of abnormalities detected: (incidence) (Sprague Dawley rats; 10 mg/kg IV): 0 | Palpebral closure- mild/moderate (incidence) (Sprague Dawley rats; 10 mg/kg IV): 0 | Piloerection- mild (incidence) (Sprague Dawley rats; 10 mg/kg IV): 3 | Reduced activity- mild (incidence) (Sprague Dawley rats; 10 mg/kg IV): 0 | Hunched posture or gait- mild (incidence) (Sprague Dawley rats; 30 mg/kg IV): 0 | Number of abnormalities detected: (incidence) (Sprague Dawley rats; 30 mg/kg IV): 0 | Palpebral closure- mild/moderate (incidence) (Sprague Dawley rats; 30 mg/kg IV): 1 | Piloerection- mild (incidence) (Sprague Dawley rats; 30 mg/kg IV): 3 | Reduced activity- mild (incidence) (Sprague Dawley rats; 30 mg/kg IV): 2 | effect on body weight (Sprague Dawley rats; 1, 3, 10 and 30 mg/kg IV): no effects of SOC-1 test item treatment on body weight | injection site reactions (Sprague Dawley rats; 1, 3, 10 and 30 mg/kg IV): no findings of injection site reactions | morbidity and mortality (Sprague Dawley rats; 1, 3, 10 and 30 mg/kg IV): no unscheduled deaths or findings of morbidity | tolerability (Sprague Dawley rats; 1, 3, 10 and 30 mg/kg IV): tolerated in this study at all dose levels | clinical findings post-dose on Study Day 1 (Sprague Dawley rats; 10 and 30 mg/kg IV): piloerection, hunched posture and gait and palpebral closure | time to resolution of clinical findings post-dose (Sprague Dawley rats; 10 and 30 mg/kg IV): 4 to 24 h | Bodyweight, Mean (Sprague Dawley rats; Group 1 (1 mg/kg IV), day 1): 208.233 g | Bodyweight, Mean (Sprague Dawley rats; Group 1 (1 mg/kg IV), day 2): 203.733 g | Bodyweight, Mean (Sprague Dawley rats; Group 1 (1 mg/kg IV), day 3): 204.933 g | Bodyweight, Mean (Sprague Dawley rats; Group 1 (1 mg/kg IV), day 4): 208.100 g | Bodyweight, Mean (Sprague Dawley rats; Group 1 (1 mg/kg IV), day 5): 210.467 g | Bodyweight, Mean (Sprague Dawley rats; Group 1 (1 mg/kg IV), day 6): 215.300 g | Bodyweight, Mean (Sprague Dawley rats; Group 1 (1 mg/kg IV), day 7): 209.833 g | Bodyweight, Mean (Sprague Dawley rats; Group 1 (1 mg/kg IV), day 8): 216.633 g | Bodyweight, Mean (Sprague Dawley rats; Group 2 (3 mg/kg IV), day 1): 196.867 g | Bodyweight, Mean (Sprague Dawley rats; Group 2 (3 mg/kg IV), day 2): 193.700 g | Bodyweight, Mean (Sprague Dawley rats; Group 2 (3 mg/kg IV), day 3): 198.733 g | Bodyweight, Mean (Sprague Dawley rats; Group 2 (3 mg/kg IV), day 4): 199.233 g | Bodyweight, Mean (Sprague Dawley rats; Group 2 (3 mg/kg IV), day 5): 201.200 g | Bodyweight, Mean (Sprague Dawley rats; Group 2 (3 mg/kg IV), day 6): 204.733 g | Bodyweight, Mean (Sprague Dawley rats; Group 2 (3 mg/kg IV), day 7): 201.967 g | Bodyweight, Mean (Sprague Dawley rats; Group 2 (3 mg/kg IV), day 8): 206.333 g | Bodyweight, Mean (Sprague Dawley rats; Group 3 (10 mg/kg IV), day 1): 205.933 g | Bodyweight, Mean (Sprague Dawley rats; Group 3 (10 mg/kg IV), day 2): 207.267 g | Bodyweight, Mean (Sprague Dawley rats; Group 3 (10 mg/kg IV), day 3): 214.533 g | Bodyweight, Mean (Sprague Dawley rats; Group 3 (10 mg/kg IV), day 4): 216.100 g | Bodyweight, Mean (Sprague Dawley rats; Group 3 (10 mg/kg IV), day 5): 211.733 g | Bodyweight, Mean (Sprague Dawley rats; Group 3 (10 mg/kg IV), day 6): 213.433 g | Bodyweight, Mean (Sprague Dawley rats; Group 3 (10 mg/kg IV), day 7): 219.000 g | Bodyweight, Mean (Sprague Dawley rats; Group 3 (10 mg/kg IV), day 8): 218.900 g | Bodyweight, Mean (Sprague Dawley rats; Group 4 (30 mg/kg IV), day 1): 206.833 g | Bodyweight, Mean (Sprague Dawley rats; Group 4 (30 mg/kg IV), day 2): 202.567 g | Bodyweight, Mean (Sprague Dawley rats; Group 4 (30 mg/kg IV), day 3): 210.967 g | Bodyweight, Mean (Sprague Dawley rats; Group 4 (30 mg/kg IV), day 4): 216.500 g | Bodyweight, Mean (Sprague Dawley rats; Group 4 (30 mg/kg IV), day 5): 209.667 g | Bodyweight, Mean (Sprague Dawley rats; Group 4 (30 mg/kg IV), day 6): 213.367 g | Bodyweight, Mean (Sprague Dawley rats; Group 4 (30 mg/kg IV), day 7): 222.300 g | Bodyweight, Mean (Sprague Dawley rats; Group 4 (30 mg/kg IV), day 8): 219.767 g | acute tolerated dose (Sprague Dawley rats; bolus intravenous injection, female rats): at least 30 mg/kg | affinity for 5-HT6 (5-HT6): no notable affinity | affinity for Alpha1B (Alpha1B): no notable affinity | affinity for Alpha1D (Alpha1D): no notable affinity | affinity for D4 (D4): no notable affinity | affinity for M1 (M1): no notable affinity | affinity for M5 (M5): no notable affinity | affinity for PBR (PBR): no notable affinity
